According to US20260356849A1, “COMPOUNDS AND METHODS FOR TREATING CANCERS” (CEDARS-SINAI MEDICAL CENTER, priority 2022, published 2026):
“Also recorded” adds a separate entry of the source.

Assays:
GIT1 = GIT1 dependence of cyclin B1 and EdU effects; type: cell-based
RKO cells [1] = experiment: Migration assay RKO; type: cell-based, human; settings: 1 μM, 24 hours
mouse hepatocytes = experiment: Annexin V-FITC/propidium iodide assay mouse hepatocytes; type: cell-based; settings: 5 μM, 24-48 hours
Experimental: (§1) FIG. 8 depicts, in accordance with various embodiments of the invention, results of an annexin V-FITC/propidium iodide binding assay performed in human and mouse hepatocytes, AML12, HEK293, HepG2, and RKO cells after treatment with 5 μM of a GIT1 inhibitor or DMSO for 24-48 hours (results are shown as mean±SE from at least 3 experiments. *p<0.05 vs. DMSO).
(§2) An annexin V-FITC/propidium iodide (PI) binding assay was performed with flow cytometry. […] Both G2/M arrest and cell death are mechanisms by which compound C3 inhibits cancer cells' growth.

Toxicity in C57/BL6 mice = settings: mouse, in vivo
GIT2-GFP = GIT2-GFP (Homo sapiens, UniProt Q14161); experiment: MST binding to GIT2-GFP
Sequence of GIT2-GFP (Q14161 whole entry): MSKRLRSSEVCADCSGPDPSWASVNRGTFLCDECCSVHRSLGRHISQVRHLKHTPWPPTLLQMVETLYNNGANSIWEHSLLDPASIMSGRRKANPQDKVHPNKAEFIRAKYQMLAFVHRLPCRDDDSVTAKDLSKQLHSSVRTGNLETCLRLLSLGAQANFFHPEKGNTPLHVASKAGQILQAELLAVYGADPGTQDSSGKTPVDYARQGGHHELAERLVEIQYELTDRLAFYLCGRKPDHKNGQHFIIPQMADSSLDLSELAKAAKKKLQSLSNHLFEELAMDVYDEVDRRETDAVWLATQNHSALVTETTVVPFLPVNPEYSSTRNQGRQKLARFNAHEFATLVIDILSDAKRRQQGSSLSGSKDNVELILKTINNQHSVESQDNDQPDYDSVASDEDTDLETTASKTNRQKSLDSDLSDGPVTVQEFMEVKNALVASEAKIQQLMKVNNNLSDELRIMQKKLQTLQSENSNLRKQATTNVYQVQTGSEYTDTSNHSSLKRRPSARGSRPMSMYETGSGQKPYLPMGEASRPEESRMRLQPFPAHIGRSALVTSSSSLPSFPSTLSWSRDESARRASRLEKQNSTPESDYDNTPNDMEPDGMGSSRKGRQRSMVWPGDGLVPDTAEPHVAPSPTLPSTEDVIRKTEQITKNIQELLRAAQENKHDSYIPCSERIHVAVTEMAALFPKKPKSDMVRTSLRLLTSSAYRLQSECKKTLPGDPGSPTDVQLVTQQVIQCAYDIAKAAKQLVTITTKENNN

Cyclin D1 = Cyclin D1 protein level in cancer cells; type: cell-based; settings: 10 μM, 24 hours
GIT1-MAT2B = GIT1-MAT2B (Homo sapiens, UniProt Q9Y2X7); experiment: Co-IP MAT2B-GIT1 interaction in HepG2 cells; type: cell-based; settings: HepG2, 10 μM, 24 hours
Sequence of GIT1-MAT2B (Q9Y2X7 whole entry): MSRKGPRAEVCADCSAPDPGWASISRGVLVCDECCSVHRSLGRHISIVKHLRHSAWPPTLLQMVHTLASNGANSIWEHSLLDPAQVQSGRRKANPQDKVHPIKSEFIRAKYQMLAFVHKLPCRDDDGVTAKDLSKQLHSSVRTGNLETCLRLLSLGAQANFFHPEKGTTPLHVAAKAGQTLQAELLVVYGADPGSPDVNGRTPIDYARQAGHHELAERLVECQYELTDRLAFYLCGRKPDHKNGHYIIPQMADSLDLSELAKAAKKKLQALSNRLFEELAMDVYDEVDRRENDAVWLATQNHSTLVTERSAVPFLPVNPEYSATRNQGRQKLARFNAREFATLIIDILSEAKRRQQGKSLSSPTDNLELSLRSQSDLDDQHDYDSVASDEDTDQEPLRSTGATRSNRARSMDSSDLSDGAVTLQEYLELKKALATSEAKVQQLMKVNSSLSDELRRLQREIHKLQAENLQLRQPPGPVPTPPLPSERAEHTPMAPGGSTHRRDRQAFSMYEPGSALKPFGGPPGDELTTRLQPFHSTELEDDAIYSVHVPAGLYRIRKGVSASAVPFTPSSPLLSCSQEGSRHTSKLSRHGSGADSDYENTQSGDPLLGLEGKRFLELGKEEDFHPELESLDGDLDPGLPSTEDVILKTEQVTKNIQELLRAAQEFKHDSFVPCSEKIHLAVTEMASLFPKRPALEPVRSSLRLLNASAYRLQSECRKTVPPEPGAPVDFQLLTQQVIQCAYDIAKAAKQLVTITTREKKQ
Description: GIT1-MAT2B scaffold complex sequesters and activates RAS/RAF/MEK/ERK signaling.

CyclinB1 = experiment: Cyclin B1 expression by RT-PCR, Western blotting and CHX in HepG2; type: cell-based
Experimental: HepG2 cells were treated with DMSO or compound C3 (2-5 μM) for 24 hours. […] Numbers shown below are mean±SE densitometric values.

RKO cells [2] = experiment: Clonogenic assay RKO; type: cell-based, human; settings: 1 μM, 24 hours then drug free medium 10-20 days; dose dependent
Experimental: (§3) RKO, HepG2, and AML12 cells were treated with 1-10 μM compound C3 for 24 hours and maintained in drug free medium for 10-20 days.

MC38 cells [3] = experiment: MC38 CRC liver metastasis (CRLM) model in immune competent mice; type: in vivo
Experimental: FIG. 40A-FIG. 40E depicts, in accordance with various embodiments of the invention, compound C3 inhibits CRC liver metastasis in immune competent mice. MC38 cells (2.5×10^5) stably expressing luciferase where injected intrasplenically followed by splenectomy. 7 days later compound C3 (20 mg/kg on day 1 sinc MC38 grows rapidly, then 15 mg/kg daily×3 days, rest for 2 days, then 15 mg/kg×2 days) or DMSO were given ip. Small animal imaging (FIG. 40A). H&E of tumors (FIG. 40B). Luciferase intensity at various time points (FIG. 40C). Gross pictures of the livers at day 9 (FIG. 40D), ALT and AST levels after above, or compound C3 (15 mg/kg/d for 21 days), *p<0.05 vs. DMSO (FIG. 40E).
Compound C3 powder was dissolved in pure DMSO at 50 mg/ml, as a stock store in-80 °C. Stock solution was dissolved in 200 μl 0.9% saline to reach 15 mg/kg. For control group, DMSO was dissolved in 200 μl saline to achieve a concentration of DMSO in saline of 4.5%. MC38 cells (2.5×105) stably expressing luciferase were injected intrasplenically followed by splenectomy (CRLM model). Seven days later, Compound C3 (20 mg/kg on day 1, then 15 mg/kg daily ×3 days, rest for 2 days, then 15 mg/kg×2 days) or DMSO were administered ip.

HepG2 cells = experiment: Clonogenic assay HepG2; type: cell-based; settings: 1 μM, 24 hours then drug free medium 10-20 days; dose dependent
Experimental: as §3

RKO cells [4] = experiment: RKO growth in liver of nude mice; type: in vivo; settings: 25 mg/kg ip daily for 5 days
Experimental: FIG. 39A-FIG. 39D depicts, in accordance with various embodiments of the invention, compound C3 inhibits human CRC growth in liver. RKO cells (2×10^6) stably expressing luciferase were injected into the liver of nude mice. Twenty days later (day 0) DMSO and compound C3 were injected intraperitoneally (ip) in FIG. 39A pilot experiment using 10 mg/kd/d×5 days, rest 2 days and repeat. FIG. 39B 25 mg/kg daily for 5 days and imaged on day 7 using IVIS Spectrum photon-counting device optical imaging system (Xenogen, Alameda, CA.). FIG. 39C graph summarizes luciferase intensity from FIG. 39B. FIG. 39D gross pictures of the livers at day 7 from FIG. 39B, point to tumors *p<0.05.
Compound C3 powder was dissolved in pure DMSO at 50 mg/ml, as a stock store in-80 °C. Stock solution was dissolved in 200 μl 0.9% saline to reach 25 mg/kg. For control group, DMSO was dissolved in 200 μl saline to achieve a concentration of DMSO in saline of 7.5%. RKO cells (2×106) stably expressing luciferase were injected directly into the liver of nude mice. Twenty days later DMSO and Compound C3 were injected intraperitoneally (ip) at a dose of 25 mg/kg daily for 5 days and imaged on day 7.

human hepatocytes = experiment: Annexin V-FITC/propidium iodide assay human hepatocytes; type: cell-based; settings: 5 μM, 24-48 hours
Experimental: as §1, §2

MEK and ERK activity = experiment: Western blot ERK and MEK activity in AML12 cells; type: cell-based; settings: 2-10 μM, 24 hours
HEK293 cells = experiment: Cell cycle flow cytometry HEK293; type: cell-based; settings: 1-5 μM, 24 hours
RKO cells [5] = experiment: Cell cycle flow cytometry RKO; type: cell-based, human; settings: 1-5 μM, 24 hours
MC38 cells [6] = experiment: Syngeneic subcutaneous MC38 mouse model; type: in vivo, C57/BL6 mouse
Experimental: MC38 cells were injected subcutaneously in both flanks. Compound C3 and DMSO were injected intratumorally every other day at 100 μM (5×IC50) starting at day 7 when the tumors averaged 0.5 cm in diameter. Tumor size was measured by caliper, with the tumor volume calculated according to the formula: (π/6)*(length*width*height). Each mouse received compound C3 injection in tumors on one flank and DMSO in the contralateral tumor. Animals were sacrificed on day 13.

[7] = 100 μM intratumorally every other day
[8] = 100 μM intratumorally, western blot

## CC1(C)Cc2nc3sc4c(=O)n(CC(=O)NCc5ccco5)cnc4c3cc2CO1 [Compound C3, 2-(8,8-Dimethyl-4-oxo-7,10-dihydro-8H-pyrano[3″,4″: 5′,6′]pyrido[3′,2′: 4,5]thieno[3,2-d]pyrimidin-3 (4H)-yl)-N-(2-furylmethyl) acetamide]
GIT1
  GIT1 dependence of lower EdU (growth): lower EdU requires GIT1
GIT1; n=3
  GIT1 dependence of increase in cyclin B1 level / stabilization: GIT1 dependent; also recorded: increase in cyclin BI level requires GIT1
RKO cells [1]
  migration of RKO cells: significant inhibition in migration
Mouse hepatocytes
  cell death, mouse hepatocytes: does not induce cell death
Toxicity in C57/BL6 mice
  toxicity in C57/BL6 mice: no toxicity
GIT2-GFP
  binding to GIT2-GFP: not GIT2-GFP
Cyclin D1
  Cyclin D1 protein level, cancer cells: lower in cancer cells
GIT1-MAT2B
  GIT1-MAT2B scaffold formation: disrupted GIT1-MAT2B scaffold formation
CyclinB1
  CyclinB1 content: increases CyclinB1 content; also recorded: led to cyclin B1 accumulation
CyclinB1; HepG2, 2-5 μM, 24 hours
  CyclinB1 mRNA level: increases CyclinB1 mRNA level
CyclinB1; HepG2, cycloheximide, 5 μM
  CyclinB1 protein degradation: inhibits its protein degradation
CyclinB1; associated with nuclear accumulation
  CyclinB1 phosphorylation: promotes CyclinB1 phosphorylation
RKO cells [2]
  clonogenic potential, RKO: inhibited the clonogenic potential
MC38 cells [3]; ip 20 mg/kg day 1, 15 mg/kg daily ×3 days, rest 2 days, 15 mg/kg×2 days
  tumor growth, liver metastasis: Tumor growth was inhibited
MC38 cells [3]; ip 20 mg/kg day 1, then 15 mg/kg, ALT and AST
  toxicity: without toxicity
HepG2 cells
  clonogenic potential, HepG2: inhibited the clonogenic potential
RKO cells [4]
  overt toxicity: without causing overt toxicity
RKO cells [4]; imaged day 7
  tumor growth in liver: effective in reducing tumor growth
Human hepatocytes
  cell death, human hepatocytes: does not induce cell death
MEK and ERK activity
  ERK and MEK activities, AML12: not in AML12 cells
HEK293 cells
  G2/M arrest, HEK293: did not occur
RKO cells [5]
  G2/M phase, RKO: G2/M phase was significantly increased
  percentage of cells in G1 phase, RKO: lowered the percentage of cells in G1 phase
MC38 cells [6]; [7]
  H&E of tumors: spindle MC38 tumor cells turned into small round cells
  H&E staining of major organs: no tissue damage or toxicity
  PCNA staining in tumors: dramatic effect in reducing its staining
  TUNEL assay of tumors: more apoptopic cells
  body weights: not significantly different
MC38 cells [6]; 100 μM intratumorally every other day from day 7, day 13
  tumor growth, subcutaneous: inhibits colon cancer growth
MC38 cells [6]; [8]
  MEK1/2 activity in tumors: decreased MEK1/2 activity
  cyclin D1 level in tumors: less cyclin D1 level
